The text below walks through data of US11033568B2, “Nicotinamide riboside compositions for topical use in treating skin conditions” (ChromaDex Inc., priority 2013, dated 2021).

Molecules are shown by their SMILES.

The test system of one data set is NIH 3T3 fibroblasts. As to the kind of experiment: Scratch wound healing assay (CytoSelect Wound Healing Assay Kit). The data set is classed as cell-based, mouse. On the procedure: NIH 3T3 fibroblasts were obtained from […]) and cultured in Dulbecco's modified Eagle's medium (DMEM) supplemented with 10% fetal bovine serum (FBS), 4 mM L-glutamine, 1% penicillin/streptomycin under a fully humidified atmosphere containing 5% CO2 at 37° C. For experiments, cells were collected from subconfluent monolayers with trypsin/EDTA. Cell viability was higher as 95% using trypan blue dye exclusion staining. The study was carried out using cells from passages 4-7 in DMEM medium containing 1% FBS. Untreated cells (1% FBS) were used as negative controls. The effect of nicotinamide riboside chloride (NR chloride) on wound closure in NIH 3T3 fibroblasts was investigated. Cell viability was determined by cell titer blue (Promega), wound closure by CytoSelectTM Wound Healing Assay Kit (Cell Biolabs, Inc., San Diego, USA). All conditions were performed in three independent, controlled experiments. […] Microscopic imaging of wound closure was analyzed using “Image J” software. […] Apart from microscopic observations, data was analyzed for the determination of total surface area of the defined wound area using “Image J” software. Surface area of the migrated cells into the wound area was calculated by subtracting surface area after 24 hour from total surface area of the wound at “0” hour. […]

The test system of data set [1] is A431 human epidermoid cells. Put plainly: Oxidative damage protection assay (1 mM H2O2, alamar blue cell viability). The format is cell-based. Particulars: for percent cytoprotection: 1 mM H2O2, vs positive (H2O2) control. On the procedure:
A431 human epidermoid cells (ATCC #CRL1555) were grown in DMEM media supplemented with 10% FBS and 1% PenStrep in T75 flasks based on culture recommendations. The media was replaced every two-three days till >80% confluency was attained. The cells were trypsinized with 0.25% trypsin EDTA solution for 2-3 minutes until the cells were dislodged. The cells were sub-cultured in a ratio of 1:3 for further growth and scale-up for the assay. The cells were trypsinized and counted to a density of 5,000 or 15,000 cells and seeded in […], media/well in 96-well clear bottom black plates. The outer wells at the periphery of the plates were left unseeded and were instead filled with media to reduce the edge effect during incubation. The plates were incubated overnight in a humidified incubator at 37° C./5% CO2 to confirm that the cells were attached. The Nicotinamide Riboside chloride (NR chloride) was added at indicated final assay concentrations in the media either under pre-treatment for 24 h (without hydrogen peroxide) or along with 1 mM hydrogen peroxide for an incubation of 20 h in a humidified incubator at 37° C./5% CO2 either with media replenishment at 8 h or under growth synchronized conditions using 1% FBS. Each concentration was tested in 6 replicates. Appropriate controls: cells without compound and hydrogen peroxide (no cytotoxicity; negative control), cells without compound but in the presence of 1 mM hydrogen peroxide (positive control), wells with alamar blue alone (blank) were kept in each assay. Cell viability was graphed and data was represented as percent cytotoxicity for 1 mM H2O2 under a given assay condition with respect to negative (untreated control) cells or percent cytoprotection in the presence of the test compound calculated with respect to positive (1 mM H2O2) control.
A general note: Alamar Blue is a resazurin reagent that responds to reducing activity.

Another data set relates to A431 cell line. Put plainly: UV-C damage assay, cyclobutane pyrimidine dimer (CPD) ELISA. The data set is classed as cell-based, human. The settings on record: for cyclobutane pyrimidine dimer (CPD) level vs. control: 2 h pre-treatment, 10 J/m^2 UVC. On the procedure: The A431 cell line was seeded in 6-wells plate at a seeding density of 4×10^5 cells/well in 2 ml of culture media containing 10% FBS. The cells were left untreated as a control or treated with different concentrations of NR chloride in the media (5 mM and 1 mM) for 2 h under a fully humidified atmosphere containing 5% CO2 at 37° C. After incubation, culture media was replaced by PBS and cells were exposed to 10 J/m^2 UVC irradiation. Plates were harvested along with respective controls immediately after UVC exposure (Negative Control was cells without UV-C exposure while Positive Control was untreated Cells with UV-C exposure). DNA from cells in each condition was extracted and quantified by NanoDrop. DNA samples were then added in the ELISA plate at 100 ng/well conc. and amount of cyclobutane pyrimidine dimer (CPD) was estimated in the DNA samples using CPD-DNA estimation kits (OxiSelect™, Cell Biolabs, Inc., San Diego, USA) as per manufacturer's protocol.
(ELISA stands for enzyme-linked immunosorbent assay.)

For data set [2] the following is noted: cited from earlier work.

As to `NC(=O)c1ccc[n+]([C@@H]2O[C@H](CO)[C@@H](O)[C@H]2O)c1` [NR chloride, Nicotinamide Riboside chloride], the gap closure with NIH 3T3 fibroblasts (0.2 mM + 1% FBS) is on record as 13%; with NIH 3T3 fibroblasts (1 mM + 1% FBS, 24 hour incubation) it was 46%. In addition, the percent cytoprotection was −1% in data set [1] (0.04 mM, normal growth (10% FBS)); 2% in data set [1] (0.2 mM, growth synchronized (1% FBS)); 8% in data set [1] (0.2 mM, normal growth (10% FBS)); 15% in data set [1] (1 mM, growth synchronized (1% FBS)); 23% in data set [1] (1 mM, normal growth (10% FBS)); 38% in data set [1] (5 mM, growth synchronized (1% FBS)). Further, the “reduction of oxidative damage-mediated cell death” value in data set [1] (expected) is “at least 10%”; in data set [1] (summary over conditions, even in growth arrested condition), 10-40%. For the same compound, the “cyclobutane pyrimidine dimer (CPD) level vs. control” value in the data set with A431 cell line (+1 mM, 1.2 μg/ml DNA control) is −32%; in the data set on A431 cell line (+1 mM, 2.1 μg/ml DNA control) it was −41%; in the data set on A431 cell line (+5 mM, 1.2 μg/ml DNA control), −34%; in the data set with A431 cell line (+5 mM, 2.1 μg/ml DNA control), −50%. In the data set on A431 cell line (expected), the “reduction of levels of CPDs” value is on record as “at least 10%”.
As to `COc1cc(/C=C/c2ccc(O)cc2)cc(OC)c1` [pterostilbene, 3,5-dimethoxy-4′-hydroxy-trans-stilbene], in data set [2] (in blood), the “half life t1/2” value was “about 105 minutes”. Moreover, the oral bioavailability entry in data set [2] (in vivo, po) was “orally bioavailable”.
